Test results as given in publication PMC9069370, “Integrated Design of a Membrane‐Lytic Peptide‐Based Intravenous Nanotherapeutic Suppresses Triple‐Negative Breast Cancer” (Advanced Science, 2022).
Counter-ions that a name gives are not always drawn. Like-named read-outs stand apart in the source and are kept apart here. Square brackets hold non-standard residues; d marks the D form. Peptide text beside a SMILES is read from it.

Tests used:
U2OS = format: cell-based, human; conditions: 2D culture, MTT, 72 h incubation; library peptides n = 2; D-enantiomers and small molecules replicated six times; read-out: IC50 (µM) U2OS
human red blood cells = assay: Haemolysis (human red blood cells); format: cell-based; conditions: PBS, 37 °C, 1 h; for HC50: one value for DHK, d‐DHK and d‐EEK together
Experimental: Fresh human red blood cells were obtained from Interstate Blood Bank, Inc., and thoroughly washed in PBS until the supernatant was clear. The peptide was serially diluted in PBS starting at a concentration of 200 µM. […] As a positive lysis control, 1% triton was used. […] After centrifugation, 10 µL of supernatant was transferred to 90 µL of ddH2O in a fresh 96‐well plate.

HEK293T = assay: cells; format: cell-based, human; conditions: non-cancerous cells; 2D culture, MTT, 72 h incubation; library peptides n = 2; D-enantiomers and small molecules replicated six times; read-out: IC50 (µM) HEK293T
[1] = Tryptophan fluorescent binding assay; conditions: tryptophan fluorescence; 50 µM peptide, lipid titrated 0-5000 µM; phosphate buffered saline 1X, pH 7.4; values as lipid per peptide
In short: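 Tryptophan fluorescence was used to follow binding of peptide, fixed at 50 µM, to large unilamellar vesicles of POPC:POPG (3:1 ratio) titrated into phosphate buffered saline (1X, pH 7.4). After 1 h incubation, spectra were taken on a BioTek Cytation 5 reader with excitation at 280 nm and emission at 300 to 450 nm (9 nm slits), averaging three scans.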

HMLER‐shEcad [2] = assay: Resistance formation after prolonged drug exposure, 2D culture; format: cell-based, human; conditions: for IC50: Homo sapiens
Experimental: Cancer stem cells can survive treatment, gain resistance, and reseed tumors, presenting a major challenge for chemotherapy.^[ [2] ^] […] Drugs were added with medium every 3–4 days, maintaining smooth cell growth, and 125 000 cells were split into new T25 flasks with a total volume of 5 mL once per week.

[3] = ANTS/DPX liposome leakage assay; conditions: 0.5 mM vesicles, peptide 0-20 µM, 3 h incubation, lipid per peptide
In short: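 Extruded 0.1 µm POPC or POPC/POPG (3:1) vesicles were loaded with 5 mM ANTS and 12.5 mM DPX, gel-filtered, then used at 0.5 mM lipid with titrated peptide at pH 7.4 or pH 4.8 (acidified PBS). Leakage was read at ex 350/em 510 nm after 3 h against 10% Triton maximum, expressed as lipid/peptide ratio for 50% leakage.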

MCF‐10A = assay: cells; format: cell-based, human; conditions: for IC50: non-cancerous cells, MTT, 72 h incubation, library peptides n = 2, D-enantiomers and small molecules replicated six times, read-out: IC50 (µM) MCF-10A
Description: (§1) […], and MCF-10A cells were maintained in MEGM with supplements and growth factors bovine pituitary extract, hydrocortisone, human epidermal growth factor, insulin, and gentamicin/amphotericin-B.

HMLER‐shEcad [4] = assay: cells; format: cell-based, human; conditions: for IC50: 2D culture
Description: as §1

HMLER = assay: cells; format: cell-based, human; conditions: 2D culture, MTT, 72 h incubation; library peptides average of two independent experiments (n = 2); D-enantiomers and small molecules replicated six times; read-out: IC50 (µM) HMLER
Description: as §1

[5] = Tryptophan fluorescence and circular dichroism binding to vesicles; conditions: binding to both POPC and POPG vesicles; 50 µM peptide, 10 mM phosphate buffer, pH 7.0
Experimental: 50 µM ACP peptides and varied concentrations (concentrations: 0, 25, 50, 100, 150, 200, 250, 500, 1250, and 2500 µM) of POPC or POPC:POPG (3:1 ratio) large unilamellar vesicles were prepared in 10 mM phosphate buffer (pH 7.0). The solutions were measured after 1 h of incubation. Excitation was fixed at 280 nm (slit 9 nm) and emission was collected from 300 to 450 nm (slit 9 nm). The spectra were recorded using Cytation 5 Cell Imaging Multi‐Mode Reader from BioTek and were averaged by three scans.
Extended Data Figure 9 | Peptide-lipid interactions. Conformational change of tryptophan fluorescence quenching of 50 µM DHK peptide with titrated a, POPC or b, POPG LUV concentration (0, 12.5, 25, 50, […]
POPC or d, POPG LUV against elevated temperature (20, 45, 70, and 95 °C). The black solid line represents peptide-only in buffer at 20 °C. All the experiments were performed in 10 mM phosphate buffer, pH 7.0.
(1 picture or pasted object on this page, not shown here)

[6] = tested on: HMLER‐shEcad tumorspheres; assay: cells; format: cell-based, human; conditions: for IC90: reducing tumorsphere cell viability by 90%, read-out: IC90 against HMLER‐shEcad tumorspheres
MCF‐10A mammospheres = assay: Mammosphere viability assay (TOX8); format: cell-based, human
various [7] = conditions: read-out: IC50 [µM], various; 2D and 3D tumorspheres; summary of Figures 2, 3 and 5
Description: The final concentration of DMSO in each well was either 0.5% or 0% and this amount was present in the untreated control.

MCF‐7 = conditions: 2D; ref [11], [19], [47]; cited from earlier work
Description: (§2) Table 1 ACP activity comparison. Reported in vitro anticancer activity (IC50) of ACPs | column: IC50 [µM]

[8] = cited from earlier work
Description: (§3) Table 1 ACP activity comparison. Reported in vitro anticancer activity (IC50) of ACPs | column: Assay and Notes

various [9] = conditions: 2D; ref [70]; cited from earlier work
Description: as §2

HCT116 = conditions: 2D; ref [69]; cited from earlier work
Description: as §2

A20, AT84, MRC‐5 = conditions: ref [22], [23], [57], [63]; cited from earlier work
Description: as §2

A549 = conditions: 2D; ref [68]; cited from earlier work
Description: as §2

tumor in mouse = conditions: dose: 25 mg kg^−1; ref [68]; cited from earlier work
Description: as §3

[10] = PBS 1X pH 7.4, high ratio = more potent
[11] = MTT, 72 h incubation, library peptides average of two independent experiments (n = 2), D-enantiomers and small molecules replicated six times, read-out: IC50 (µM) HMLER-shEcad

CC(C)C[C@H](NC(=O)CN)C(=O)N[C@@H](CC(C)C)C(=O)N[C@@H](CC(=O)O)C(=O)N[C@@H](CC(C)C)C(=O)N[C@@H](CC(C)C)C(=O)N[C@@H](Cc1c[nH]cn1)C(=O)N[C@@H](CC(C)C)C(=O)N[C@@H](CC(C)C)C(=O)N[C@@H](CC(C)C)C(=O)N[C@@H](CCCCN)C(=O)N[C@@H](C)C(=O)N[C@@H](C)C(=O)NCC(=O)N[C@@H](Cc1c[nH]c2ccccc12)C(N)=O [DHK] (H-GLLDLLHLLLKAAGW-NH2)
IC50 (U2OS): 20.4 ± 2.05 µM | HC50 (human red blood cells): 14 ± 5 µM | IC50 (HEK293T): 7.3 ± 0.42 µM | Lipid Concentration-induced 50% Peptide Binding (L/P), 3POPC/1POPG Vesicle [1]: 0.38 L/P | Lipid Concentration-induced 50% Peptide Binding (L/P), POPC Vesicle [1]: 0.20 L/P | shift in IC50 after prolonged exposure to ACP (HMLER‐shEcad [2]; 2D HMLER‐shEcad after 28 days co‐incubation with 0.4 µM d‐DHK): no shift in IC50 | Peptide Concentration-induced 50 % ANTS/DPX leakage at pH 4.8 (L/P), 3POPC/1POPG Vesicle ([3]; HCl-adjusted PBS 1X pH 4.8): 183 L/P | Peptide Concentration-induced 50 % ANTS/DPX leakage at pH 4.8 (L/P), POPC Vesicle ([3]; HCl-adjusted PBS 1X pH 4.8): 47 L/P | Peptide Concentration-induced 50 % ANTS/DPX leakage at pH 7.4 (L/P), 3POPC/1POPG Vesicle [3, 10]: 469 L/P | Peptide Concentration-induced 50 % ANTS/DPX leakage at pH 7.4 (L/P), POPC Vesicle [3, 10]: 747 L/P | IC50 (MCF‐10A; 2D culture): 5.05 ± 1.34 µM | IC50 (HMLER‐shEcad [4]; [11]): 1.02 ± 0.12 µM | IC50 (HMLER): 1.75 ± 0.49 µM | ∆G binding [5]: -8.8 ± 1.2 kcal/mol

COc1cccc2c1C(=O)c1c(O)c3c(c(O)c1C2=O)C[C@@](O)(C(=O)CO)C[C@@H]3O[C@H]1C[C@H](N)[C@H](O)[C@H](C)O1 [Doxorubicin, Doxorubicin hydrochloride, reference compound]
tumorsphere cell viability ([6]; HMLER‐shEcad tumorspheres, at 133 µM): > 15% | IC50 ([6]; Homo sapiens, 120 h, 3D multicellular spheroids, 5 days, TOX8 fluorescence read-out, read-out: IC50 against HMLER‐shEcad tumorspheres): 43 ± 6 µM | IC90 ([6]; Homo sapiens, 3D multicellular spheroids): 138 ± 11 µM | IC90 against MCF‐10A mammospheres (MCF‐10A mammospheres): 167 ± 7 µM | therapeutic window (fold IC50) in the 3D assay (MCF‐10A mammospheres; 3D spheroid assay): ≈ 3 fold | IC50 (HMLER‐shEcad [2]; 240 h, 2D HMLER‐shEcad after 10 days co‐incubation with 30 nM doxorubicin, read-out: IC50 of doxorubicin after prolonged doxorubicin exposure): 0.189 ± 0.068 µM | IC50 (HMLER‐shEcad [2]; 2D HMLER‐shEcad, vehicle, read-out: IC50 of doxorubicin, cells before/without doxorubicin exposure): 0.024 ± 0.002 µM | therapeutic window (fold IC50) in 2D assays (MCF‐10A; 2D assays): > 100 fold | selectivity for cancerous cells over non‐tumorigenic MCF‐10A (MCF‐10A; 2D culture, ratio of IC50): > 160 fold | IC90 in 2D assay (HMLER‐shEcad [4]; 2D HMLER‐shEcad (Figure 3d,f), cells remained viable in the high micromolar range): could not be attained | IC50 (HMLER‐shEcad [4]; Homo sapiens, read-out: IC50, HMLER-shEcad cell viability, co-incubation with 5 µM z-VAD-FMK): 0.0477 ± 0.0026 µM | IC50 (HMLER‐shEcad [4]; Homo sapiens, read-out: IC50, HMLER-shEcad cell viability, co-incubation with 20 µM necrostatin-1): 0.0631 ± 0.0042 µM | IC50 (HMLER‐shEcad [4]; Homo sapiens, read-out: IC50, HMLER-shEcad cell viability, compound alone): 0.0031 ± 0.0004 µM

CC(C)C[C@H](NC(=O)CN)C(=O)N[C@@H](CC(C)C)C(=O)N[C@@H](CCC(=O)O)C(=O)N[C@@H](CC(C)C)C(=O)N[C@@H](CC(C)C)C(=O)N[C@@H](CCC(=O)O)C(=O)N[C@@H](CC(C)C)C(=O)N[C@@H](CC(C)C)C(=O)N[C@@H](CC(C)C)C(=O)N[C@@H](CCCCN)C(=O)N[C@@H](C)C(=O)N[C@@H](C)C(=O)NCC(=O)N[C@@H](Cc1c[nH]c2ccccc12)C(N)=O [EEK] (H-GLLELLELLLKAAGW-NH2)
human red blood cell lysis (human red blood cells): only minimal human red blood cell lysis below 90 µM | IC90 ([6]; 3D multicellular spheroids): 23 ± 3 µM | IC90 against MCF‐10A mammospheres (MCF‐10A mammospheres; 3D non‐tumorigenic mammospheres): 141 ± 11 µM | IC50 (various [7]): 1 to 27 µM | IC50 (MCF‐10A; 2D culture): > 200 µM

CC(C)[C@H](NC(=O)[C@H](CCCCN)NC(=O)[C@@H](NC(=O)[C@H](CCCCN)NC(=O)[C@@H](NC(=O)[C@H](CCCCN)NC(=O)[C@@H](NC(=O)[C@@H]1CCCN1C(=O)[C@H]1CCCN1C(=O)[C@@H](NC(=O)[C@H](CCCCN)NC(=O)[C@@H](NC(=O)[C@H](CCCCN)NC(=O)[C@@H](NC(=O)[C@H](CCCCN)NC(=O)[C@@H](NC(=O)[C@@H](N)CCCCN)C(C)C)C(C)C)C(C)C)C(C)C)[C@@H](C)O)C(C)C)C(C)C)C(=O)N[C@@H](CCCCN)C(N)=O [SVS‐1] (H-KVKVKVKV[dP]PTKVKVKVK-NH2; N-terminus and C-terminus assumed)
IC50 (MCF‐7): 11 µM | drug resistance note ([8]; ref [11], [19], [47]): 2D; in vitro drug resistance was observed

CC(C)C[C@@H](NC(=O)CN)C(=O)N[C@H](CC(C)C)C(=O)N[C@H](CCC(=O)O)C(=O)N[C@H](CC(C)C)C(=O)N[C@H](CC(C)C)C(=O)N[C@H](CCC(=O)O)C(=O)N[C@H](CC(C)C)C(=O)N[C@H](CC(C)C)C(=O)N[C@H](CC(C)C)C(=O)N[C@H](CCCCN)C(=O)N[C@H](C)C(=O)N[C@H](C)C(=O)NCC(=O)N[C@H](Cc1c[nH]c2ccccc12)C(N)=O [d-EEK] (H-G[dL][dL][dE][dL][dL][dE][dL][dL][dL][dK][dA][dA]G[dW]-NH2)
IC50 (U2OS): 4.78 ± 0.02 µM | HC50 (human red blood cells): 14 ± 5 µM | D‐enantiomer average IC90 against MCF‐10A mammospheres (MCF‐10A mammospheres; one average for d‐DHK and d‐EEK together): 8 ± 5 µM | IC50 (HEK293T): 2.82 ± 0.07 µM | IC50 (MCF‐10A; 2D culture): 1.07 ± 0.1 µM | IC50 (HMLER‐shEcad [4]; [11]): 0.29 ± 0.01 µM | IC50 (HMLER‐shEcad [4]; read-out: IC50, HMLER-shEcad cell viability, compound alone): 0.3 ± 0.1 µM | IC50 (HMLER‐shEcad [4]; read-out: IC50, HMLER-shEcad cell viability, together with 5 µM caspase inhibitor z-VAD-FMK, co-incubation with 5 µM z-VAD-FMK): 0.3 ± 0.1 µM | IC50 (HMLER): 0.29 ± 0.01 µM

Aurein 1.2
IC50 (various [9]): 10 to 100 µM

LL37
IC50 (HCT116): 40 µM | toxicity note ([8]; ref [69]): 2D; Vascular toxicity

LTX‐315
IC50 (A20, AT84, MRC‐5): 8 to 34 µM

Magainin II
IC50 (A549): 45 µM | outcome in mouse xenograft model (tumor in mouse): 2D and mouse xenograft model (dose: 25 mg kg^−1); The tumor in mouse was smaller and still growing in 40 days
